Test results: patent US8658604B2, “Template-fixed beta-hairpin peptidomimetics with protease inhibitory activity” (Polyphor Ltd, priority 2005, dated 2014)
Where a SMILES comes first, the peptide text is derived from it.

These molecules were tested against T1, Elastase from human neutrophils (Homo sapiens, UniProt P08246) (assay: Enzymatic assay, elastase). Settings: Elastase IC50.
T1 sequence (P08246 30-267): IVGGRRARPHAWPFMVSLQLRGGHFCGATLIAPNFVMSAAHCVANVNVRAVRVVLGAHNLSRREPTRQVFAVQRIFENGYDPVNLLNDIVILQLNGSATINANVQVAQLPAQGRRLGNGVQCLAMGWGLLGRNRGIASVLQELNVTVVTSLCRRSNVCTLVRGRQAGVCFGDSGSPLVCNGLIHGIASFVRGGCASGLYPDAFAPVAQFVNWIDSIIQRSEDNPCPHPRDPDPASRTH
For CCCCCCCC[C@@H]1NC(=O)[C@H](CO)NC(=O)[C@H](C)NC(=O)[C@H]([C@@H](C)O)NC(=O)[C@H]([C@@H](C)O)NC(=O)[C@H](CCCC)NC(=O)[C@@H]2CCCN2C(=O)[C@H]2CCCN2C(=O)[C@H](Cc2ccc(O)cc2)NC(=O)[C@H](CCC(N)=O)NC(=O)[C@H](CCC(N)=O)NC(=O)[C@@H]2CCCN2C(=O)[C@@H]2CCCN2C1=O [Ex. 135] (HELM PEPTIDE1{[Nle].T.T.A.S.[CCCCCCCC[C@H](N[*:1])C(=O)[*:2]].P.P.Q.Q.Y.[dP].P}$PEPTIDE1,PEPTIDE1,1:R1-13:R2$$$V2.0), the IC50 was 23 nM.
In the case of CCCC[C@@H]1NC(=O)[C@H](CCC(N)=O)NC(=O)[C@H]2CCCN2C(=O)[C@H](CC2CCCCC2)NC(=O)[C@@H]2CSSC[C@H](NC1=O)C(=O)N[C@@H]([C@@H](C)O)C(=O)N[C@@H](C)C(=O)N[C@@H](CO)C(=O)N[C@@H](CC1CCCCC1)C(=O)N1CCC[C@H]1C(=O)N1CCC[C@H]1C(=O)N[C@@H](CCC(N)=O)C(=O)N2 [compound 172] (HELM PEPTIDE1{[Nle].C.T.A.S.[Cha].P.P.Q.C.[Cha].[dP].Q}$PEPTIDE1,PEPTIDE1,2:R3-10:R3|PEPTIDE1,PEPTIDE1,1:R1-13:R2$$$V2.0), the IC50 is reported as 13 nM.
For CC[C@H](C)[C@@H]1NC(=O)[C@@H]2CCCN2C(=O)[C@H]2CCCN2C(=O)[C@H](Cc2ccc(O)cc2)NC(=O)[C@@H]2CSSC[C@H](NC1=O)C(=O)N[C@@H]([C@@H](C)O)C(=O)N[C@@H](C)C(=O)N[C@@H](CO)C(=O)N[C@@H](CC(C)C)C(=O)N1CCC[C@H]1C(=O)N1CCC[C@H]1C(=O)N[C@@H](CCC(N)=O)C(=O)N2 [Ex. 76] (HELM PEPTIDE1{I.C.T.A.S.L.P.P.Q.C.Y.[dP].P}$PEPTIDE1,PEPTIDE1,2:R3-10:R3|PEPTIDE1,PEPTIDE1,1:R1-13:R2$$$V2.0), the IC50 was 71 nM.
Work on CCCC[C@@H]1NC(=O)[C@@H]2CCCN2C(=O)[C@H]2CCCN2C(=O)[C@H](Cc2ccc(O)cc2)NC(=O)[C@H](CCC(N)=O)NC(=O)[C@H](CCC(N)=O)NC(=O)[C@@H]2CCCN2C(=O)[C@@H]2CCCN2C(=O)[C@H]([C@@H](C)CC)NC(=O)[C@H](CO)NC(=O)[C@H](C)NC(=O)[C@H]([C@@H](C)O)NC(=O)[C@H]([C@@H](C)O)NC1=O [Ex. 110] (HELM PEPTIDE1{[Nle].T.T.A.S.I.P.P.Q.Q.Y.[dP].P}$PEPTIDE1,PEPTIDE1,1:R1-13:R2$$$V2.0) yielded an IC50 of 38 nM.
Molecule CCCC[C@@H]1NC(=O)[C@@H]2CCCN2C(=O)[C@@H](C(C)C)NC(=O)[C@H](Cc2ccc(O)cc2)NC(=O)[C@@H]2CSSC[C@H](NC1=O)C(=O)N[C@@H]([C@@H](C)O)C(=O)N[C@@H](C)C(=O)N[C@@H](CO)C(=O)N[C@@H]([C@@H](C)CC)C(=O)N1CCC[C@H]1C(=O)N1CCC[C@H]1C(=O)N[C@@H](CCC(N)=O)C(=O)N2 [Ex. 119] (HELM PEPTIDE1{A.S.I.P.P.Q.C.Y.[dV].P.[Nle].C.T}$PEPTIDE1,PEPTIDE1,7:R3-12:R3|PEPTIDE1,PEPTIDE1,1:R1-13:R2$$$V2.0) has an IC50 of 45 nM.
Molecule CCCC[C@@H]1NC(=O)[C@@H]2CCCN2C(=O)[C@H]2CCCN2C(=O)[C@H](Cc2ccc(O)cc2)NC(=O)[C@H](CO)NC(=O)[C@H](CCC(N)=O)NC(=O)[C@@H]2CCCN2C(=O)[C@@H]2CCCN2C(=O)[C@H]([C@@H](C)CC)NC(=O)[C@H](CO)NC(=O)[C@H](C)NC(=O)[C@H]([C@@H](C)O)NC(=O)[C@H](CCC(N)=O)NC1=O [Ex. 111] (HELM PEPTIDE1{[Nle].Q.T.A.S.I.P.P.Q.S.Y.[dP].P}$PEPTIDE1,PEPTIDE1,1:R1-13:R2$$$V2.0) has an IC50 of 46 nM.
CCCCCCCC[C@@H]1NC(=O)[C@H](CCC(=O)O)NC(=O)[C@@H](CCCCN)NC(=O)[C@H](Cc2ccc(O)cc2)NC(=O)[C@@H]2CSSC[C@H](NC1=O)C(=O)N[C@@H]([C@@H](C)O)C(=O)N[C@@H](C)C(=O)N[C@@H](CO)C(=O)N[C@@H]([C@@H](C)CC)C(=O)N1CCC[C@H]1C(=O)N1CCC[C@H]1C(=O)N[C@@H](CCC(N)=O)C(=O)N2 [compound 165] (HELM PEPTIDE1{[CCCCCCCC[C@H](N[*:1])C(=O)[*:2]].C.T.A.S.I.P.P.Q.C.Y.[dK].E}$PEPTIDE1,PEPTIDE1,2:R3-10:R3|PEPTIDE1,PEPTIDE1,1:R1-13:R2$$$V2.0) was tested, and the IC50 was 22 nM.
Work on CCCCCCCC[C@@H]1NC(=O)[C@@H]2CCCN2C(=O)[C@H]2CCCN2C(=O)[C@H](Cc2ccccc2)NC(=O)[C@@H]2CSSC[C@H](NC1=O)C(=O)N[C@@H]([C@@H](C)O)C(=O)N[C@@H](C)C(=O)N[C@@H](CO)C(=O)N[C@@H]([C@@H](C)CC)C(=O)N1CCC[C@H]1C(=O)N1CCC[C@H]1C(=O)N[C@@H](CCC(N)=O)C(=O)N2 [Ex. 145] (HELM PEPTIDE1{[CCCCCCCC[C@H](N[*:1])C(=O)[*:2]].C.T.A.S.I.P.P.Q.C.F.[dP].P}$PEPTIDE1,PEPTIDE1,2:R3-10:R3|PEPTIDE1,PEPTIDE1,1:R1-13:R2$$$V2.0) yielded an IC50 of 14 nM.
CCCC[C@@H]1NC(=O)[C@@H]2CCCN2C(=O)[C@H]2CCCN2C(=O)[C@H](Cc2ccc(O)cc2)NC(=O)[C@H](CCC(N)=O)NC(=O)[C@H](CCC(N)=O)NC(=O)[C@@H]2CCCN2C(=O)[C@@H]2CCCN2C(=O)[C@H](CC2CCCCC2)NC(=O)[C@H](CO)NC(=O)[C@H](C)NC(=O)[C@H]([C@@H](C)O)NC(=O)[C@H]([C@@H](C)O)NC1=O [Ex. 139] (HELM PEPTIDE1{[Nle].T.T.A.S.[Cha].P.P.Q.Q.Y.[dP].P}$PEPTIDE1,PEPTIDE1,1:R1-13:R2$$$V2.0) showed an IC50 of 18 nM.
CCCCCCCC[C@@H]1NC(=O)[C@@H]2CCCN2C(=O)[C@H]2CCCN2C(=O)[C@H](Cc2ccc(O)cc2)NC(=O)[C@@H]2CSSC[C@H](NC1=O)C(=O)N[C@@H]([C@@H](C)O)C(=O)N[C@@H](C)C(=O)N[C@@H](CO)C(=O)N[C@@H](CC1CCCCC1)C(=O)N1CCC[C@H]1C(=O)N1CCC[C@H]1C(=O)N[C@@H](CCC(N)=O)C(=O)N2 [Ex. 150] (HELM PEPTIDE1{[CCCCCCCC[C@H](N[*:1])C(=O)[*:2]].C.T.A.S.[Cha].P.P.Q.C.Y.[dP].P}$PEPTIDE1,PEPTIDE1,2:R3-10:R3|PEPTIDE1,PEPTIDE1,1:R1-13:R2$$$V2.0) gave an IC50 of 10 nM.
Molecule CC[C@H](C)[C@@H]1NC(=O)[C@H](CO)NC(=O)[C@H](C)NC(=O)[C@H]([C@@H](C)O)NC(=O)[C@H](CCC(N)=O)NC(=O)[C@H](CCc2ccccc2)NC(=O)[C@@H]2CCCN2C(=O)[C@H]2CCCN2C(=O)[C@H](Cc2ccc(O)cc2)NC(=O)[C@H]([C@@H](C)O)NC(=O)[C@H](CCC(N)=O)NC(=O)[C@@H]2CCCN2C(=O)[C@@H]2CCCN2C1=O [Ex. 142] (HELM PEPTIDE1{[O=C([C@H](CCc1ccccc1)N[*:1])[*:2]].Q.T.A.S.I.P.P.Q.T.Y.[dP].P}$PEPTIDE1,PEPTIDE1,1:R1-13:R2$$$V2.0) has an IC50 of 16 nM.
In the case of CCCC[C@@H]1NC(=O)[C@@H]2CCCN2C(=O)[C@H]2CCCN2C(=O)[C@H](Cc2ccc(O)cc2)NC(=O)[C@H](CCSC)NC(=O)[C@H](CCC(N)=O)NC(=O)[C@@H]2CCCN2C(=O)[C@@H]2CCCN2C(=O)[C@H]([C@@H](C)CC)NC(=O)[C@H](CO)NC(=O)[C@H](C)NC(=O)[C@H]([C@@H](C)O)NC(=O)[C@H]([C@@H](C)O)NC1=O [Ex. 108] (HELM PEPTIDE1{[Nle].T.T.A.S.I.P.P.Q.M.Y.[dP].P}$PEPTIDE1,PEPTIDE1,1:R1-13:R2$$$V2.0), the IC50 is reported as 31 nM.
For CCCCCCCC[C@@H]1NC(=O)[C@H](CO)NC(=O)[C@H](C)NC(=O)[C@H]([C@@H](C)O)NC(=O)[C@@H]2CSSC[C@H](NC(=O)[C@H](CCC(N)=O)NC(=O)[C@@H]3CCCN3C(=O)[C@@H]3CCCN3C1=O)C(=O)N[C@@H](Cc1ccccc1)C(=O)N1CCC[C@@H]1C(=O)N1CCC[C@H]1C(=O)N[C@@H](CCc1ccccc1)C(=O)N2 [Ex. 152] (HELM PEPTIDE1{[O=C([C@H](CCc1ccccc1)N[*:1])[*:2]].C.T.A.S.[CCCCCCCC[C@H](N[*:1])C(=O)[*:2]].P.P.Q.C.F.[dP].P}$PEPTIDE1,PEPTIDE1,2:R3-10:R3|PEPTIDE1,PEPTIDE1,1:R1-13:R2$$$V2.0), the IC50 was 9 nM.
Work on CCCC[C@@H]1NC(=O)[C@@H]2CCCN2C(=O)[C@@H](CO)NC(=O)[C@H](Cc2ccc(O)cc2)NC(=O)[C@@H]2CSSC[C@H](NC1=O)C(=O)N[C@@H]([C@@H](C)O)C(=O)N[C@@H](C)C(=O)N[C@@H](CO)C(=O)N[C@@H]([C@@H](C)CC)C(=O)N1CCC[C@H]1C(=O)N1CCC[C@H]1C(=O)N[C@@H](CCC(N)=O)C(=O)N2 [Ex. 118] (HELM PEPTIDE1{A.S.I.P.P.Q.C.Y.[dS].P.[Nle].C.T}$PEPTIDE1,PEPTIDE1,7:R3-12:R3|PEPTIDE1,PEPTIDE1,1:R1-13:R2$$$V2.0) yielded an IC50 of 43 nM.
For CCCC[C@@H]1NC(=O)[C@H](CCC(N)=O)NC(=O)[C@H]2CCCN2C(=O)[C@H](Cc2ccc(O)cc2)NC(=O)[C@@H]2CSSC[C@H](NC1=O)C(=O)N[C@@H]([C@@H](C)O)C(=O)N[C@@H](C)C(=O)N[C@@H](CO)C(=O)N[C@@H](CC1CCCCC1)C(=O)N1CCC[C@H]1C(=O)N1CCC[C@H]1C(=O)N[C@@H](CCC(N)=O)C(=O)N2 [compound 170] (HELM PEPTIDE1{[Nle].C.T.A.S.[Cha].P.P.Q.C.Y.[dP].Q}$PEPTIDE1,PEPTIDE1,2:R3-10:R3|PEPTIDE1,PEPTIDE1,1:R1-13:R2$$$V2.0), the IC50 was 16 nM.
With CCCC[C@@H]1NC(=O)[C@H]([C@@H](C)O)NC(=O)[C@@H]([C@H](C)O)NC(=O)[C@H](Cc2ccc(O)cc2)NC(=O)[C@@H]2CSSC[C@H](NC1=O)C(=O)N[C@@H]([C@@H](C)O)C(=O)N[C@@H](C)C(=O)N[C@@H](CO)C(=O)N[C@@H]([C@@H](C)CC)C(=O)N1CCC[C@H]1C(=O)N1CCC[C@H]1C(=O)N[C@@H](CCC(N)=O)C(=O)N2 [Ex. 126] (HELM PEPTIDE1{A.S.I.P.P.Q.C.Y.[dT].T.[Nle].C.T}$PEPTIDE1,PEPTIDE1,7:R3-12:R3|PEPTIDE1,PEPTIDE1,1:R1-13:R2$$$V2.0) the IC50 was 36 nM.
